# According to PubChem BioAssay (NCI):
#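 Method: 48-hour compound exposure of cells in 96-well plates, five concentrations, linear interpolation of endpoints. TGI: concentration producing complete growth inhibition.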
# Assays:
# Assay in all cases: growth of human tumour cells (NCI), 48 h
# MOLT-4 leukemia = test system: MOLT-4 leukemia
# OVCAR-5 ovarian = test system: OVCAR-5 ovarian
# SK-MEL-28 melanoma = test system: SK-MEL-28 melanoma
# NCI-H522 lung = test system: NCI-H522 lung
# MDA-MB-435 = test system: MDA-MB-435
# NCI-H460 lung = test system: NCI-H460 lung
# UO-31 renal = test system: UO-31 renal
# OVCAR-4 ovarian = test system: OVCAR-4 ovarian
# SK-MEL-5 melanoma = test system: SK-MEL-5 melanoma
# NCI-H226 lung = test system: NCI-H226 lung
# 786-0 renal = test system: 786-0 renal
# SNB-75 CNS = test system: SNB-75 CNS
# HCT-116 colon = test system: HCT-116 colon
# SR leukemia = test system: SR leukemia
# U251 CNS = test system: U251 CNS
# BT-549 breast = test system: BT-549 breast
# UACC-62 melanoma = test system: UACC-62 melanoma
# COLO 205 colon = test system: COLO 205 colon
Compound,TGI (MOLT-4 leukemia) [µM],TGI (OVCAR-5 ovarian) [µM],TGI (SK-MEL-28 melanoma) [µM],TGI (NCI-H522 lung) [µM],TGI (MDA-MB-435) [µM],TGI (NCI-H460 lung) [µM],TGI (UO-31 renal) [µM],TGI (OVCAR-4 ovarian) [µM],TGI (SK-MEL-5 melanoma) [µM],TGI (NCI-H226 lung) [µM],TGI (786-0 renal) [µM],TGI (SNB-75 CNS) [µM],TGI (HCT-116 colon) [µM],TGI (SR leukemia) [µM],TGI (U251 CNS) [µM],TGI (BT-549 breast) [µM],TGI (UACC-62 melanoma) [µM],TGI (COLO 205 colon) [µM]
COC(=O)C(/C(=N/N)C(=O)Nc1ccc(C)c(C)c1)c1nc2ccc(Cl)cc2[nH]c1=O (configuration not stated),> 100,> 100,> 100,> 100,> 100,> 100,> 100,> 100,> 100,> 100,> 100,> 100,> 100,> 100,> 100,> 100,> 100,–
CN(C)CCSC(=Nc1ccccc1)N1C=COC=C1,> 100,> 100,40.4,34,34.8,> 100,> 100,> 62,34,> 75.6,38.9,> 100,45,> 100,> 100,> 100,30.9,> 72.2
C[C@@H](C(=O)O)c1ccc(-c2ccccc2)c(F)c1,> 100,> 100,> 100,> 100,> 100,> 100,> 100,> 100,> 100,> 100,> 100,> 100,> 100,> 100,> 100,> 100,> 100,> 100
O=c1n(CCCN2CCN(c3cccc(Cl)c3)CC2)nc2n1-c1ccc3ccccc3c1SC2,> 100,> 100,> 100,> 100,> 100,> 100,–,> 100,> 100,> 100,> 100,> 100,> 100,> 100,> 100,> 100,> 100,> 100
Nc1ccn([C@H]2CO[C@@H](CO)O2)c(=O)n1,49.5,> 100,> 100,> 100,> 100,> 100,> 75.1,> 100,> 100,> 100,> 100,> 100,> 100,> 100,> 100,> 100,> 46.4,> 100
COc1ccc(/C=C/C(=O)c2nc3ccccc3[nH]2)cc1,> 67.1,> 71.7,65.6,32.5,> 100,47.5,34.6,60.1,31.8,> 54.7,32.2,57.4,18.6,> 27.1,37.3,55.2,38.9,26
Oc1ccc(-c2c3ccccc3c(-c3ccc(OCCBr)cc3)c3ccccc23)cc1,> 100,> 100,51,74,42,> 100,> 100,58.3,36.3,54.5,44.5,60.9,> 100,92.6,53.3,57.4,42.1,96.9
CC1=NN(C(=O)CC(=O)Nc2ccccc2C)C(=O)C1N=Nc1ccc(S(=O)(=O)c2ccc(N=NC3C(=O)N(C(=O)CC(=O)Nc4ccccc4C)N=C3C)cc2)cc1 (configuration not stated),> 100,> 100,> 100,> 100,> 100,> 100,> 100,> 100,> 100,> 100,> 100,> 100,> 100,> 100,> 100,> 100,> 100,> 100
CCCCOP(=O)(OCCCC)/C(C#N)=C/c1ccc(C)o1,> 100,> 100,> 100,> 100,95.9,> 100,–,> 100,76.1,78.8,> 100,> 100,> 100,> 100,> 100,43,> 100,> 100
CC(C)(C)[Si](C)(C)OCC1OC(n2cc(F)c(=O)[nH]c2=O)CC1O[Si](C)(C)C(C)(C)C (configuration not stated),22,33,–,12.7,26.5,15.7,23,17.4,17.1,42.9,20.9,15.9,19.8,7.08,22.5,17,15.7,19.5
COC(=O)[C@@]12CC[C@]1(C(=O)OC)C1C(C)=CC(=O)O[C@@]12C (some centres not stated),> 100,> 100,> 100,> 100,> 100,> 100,> 100,> 100,> 100,> 100,> 100,> 100,> 100,> 100,> 100,> 100,> 100,> 100
O=C(Nc1ccc(Cl)c(Cl)c1)C(=O)C(C1OC(=O)c2ccccc21)[N+](=O)[O-] (configuration not stated),> 100,> 100,> 100,> 100,> 100,> 100,> 100,> 100,> 100,> 100,> 100,> 100,> 100,> 100,> 100,> 100,> 100,> 100
